Laboratory results reported in publication PMC4256678 (Nature neuroscience, 2014).

Tests used:
[1] = molecular target: T1, HDAC2 (Homo sapiens, UniProt Q92769); test: fluorometric HDAC activity assay, […]; assay type: biochemical
[2] = molecular target: T2, HDAC3 (Homo sapiens, UniProt O15379); test: fluorometric HDAC activity assay, […]; assay type: biochemical
[3] = molecular target: T2, HDAC3; test: fluorometric HDAC activity assay, […]; assay type: biochemical; remark: listed apart in the source
[4] = molecular target: HDAC1 (Homo sapiens, UniProt Q13547); test: […]FTY720-P radioligand binding and displacement on Ni-NTA immobilized HDAC1
[5] = molecular target: T1, HDAC2; test: fluorometric HDAC activity assay, […]; assay type: biochemical; remark: listed apart in the source
[6] = molecular target: T3, HDAC8 (Homo sapiens, UniProt Q9BY41); test: fluorometric HDAC activity assay, […]; assay type: biochemical
T3 sequence (Q9BY41 1-377): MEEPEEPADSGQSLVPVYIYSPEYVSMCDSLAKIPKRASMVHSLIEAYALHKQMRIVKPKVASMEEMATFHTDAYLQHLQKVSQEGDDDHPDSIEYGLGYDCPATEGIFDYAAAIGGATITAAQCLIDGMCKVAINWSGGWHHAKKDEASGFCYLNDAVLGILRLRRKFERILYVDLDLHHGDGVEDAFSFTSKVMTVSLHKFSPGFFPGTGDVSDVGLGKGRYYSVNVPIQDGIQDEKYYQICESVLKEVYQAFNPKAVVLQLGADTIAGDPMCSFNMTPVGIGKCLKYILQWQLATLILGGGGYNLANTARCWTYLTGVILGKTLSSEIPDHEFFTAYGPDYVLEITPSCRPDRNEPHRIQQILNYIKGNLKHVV

T1 sequence (Q92769 whole entry): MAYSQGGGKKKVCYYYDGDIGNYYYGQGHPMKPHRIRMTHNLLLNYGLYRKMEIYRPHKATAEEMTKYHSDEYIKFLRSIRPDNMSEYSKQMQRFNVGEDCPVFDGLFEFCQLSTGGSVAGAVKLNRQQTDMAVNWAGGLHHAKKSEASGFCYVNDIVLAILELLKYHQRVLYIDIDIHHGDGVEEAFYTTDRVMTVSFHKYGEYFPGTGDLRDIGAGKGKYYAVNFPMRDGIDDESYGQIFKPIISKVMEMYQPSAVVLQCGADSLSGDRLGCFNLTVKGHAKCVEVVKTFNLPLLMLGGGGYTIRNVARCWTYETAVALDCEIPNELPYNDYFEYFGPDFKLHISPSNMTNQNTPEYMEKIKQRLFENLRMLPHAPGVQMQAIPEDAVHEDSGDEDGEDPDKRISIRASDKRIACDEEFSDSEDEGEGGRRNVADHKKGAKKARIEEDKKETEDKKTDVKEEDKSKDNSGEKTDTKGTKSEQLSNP
T2 sequence (O15379 whole entry): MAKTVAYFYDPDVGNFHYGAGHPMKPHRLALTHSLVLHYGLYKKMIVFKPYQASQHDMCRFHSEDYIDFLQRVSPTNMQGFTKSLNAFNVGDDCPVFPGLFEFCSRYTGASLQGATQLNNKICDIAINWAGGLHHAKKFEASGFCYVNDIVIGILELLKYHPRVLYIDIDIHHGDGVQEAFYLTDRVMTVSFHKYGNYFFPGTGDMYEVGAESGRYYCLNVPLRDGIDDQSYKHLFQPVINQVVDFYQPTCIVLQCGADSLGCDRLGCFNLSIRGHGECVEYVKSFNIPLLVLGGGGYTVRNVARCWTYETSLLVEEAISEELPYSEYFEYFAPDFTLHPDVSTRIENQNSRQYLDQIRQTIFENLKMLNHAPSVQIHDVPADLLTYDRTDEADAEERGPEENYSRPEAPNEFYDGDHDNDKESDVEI
HDAC1, sequence (Q13547 whole entry): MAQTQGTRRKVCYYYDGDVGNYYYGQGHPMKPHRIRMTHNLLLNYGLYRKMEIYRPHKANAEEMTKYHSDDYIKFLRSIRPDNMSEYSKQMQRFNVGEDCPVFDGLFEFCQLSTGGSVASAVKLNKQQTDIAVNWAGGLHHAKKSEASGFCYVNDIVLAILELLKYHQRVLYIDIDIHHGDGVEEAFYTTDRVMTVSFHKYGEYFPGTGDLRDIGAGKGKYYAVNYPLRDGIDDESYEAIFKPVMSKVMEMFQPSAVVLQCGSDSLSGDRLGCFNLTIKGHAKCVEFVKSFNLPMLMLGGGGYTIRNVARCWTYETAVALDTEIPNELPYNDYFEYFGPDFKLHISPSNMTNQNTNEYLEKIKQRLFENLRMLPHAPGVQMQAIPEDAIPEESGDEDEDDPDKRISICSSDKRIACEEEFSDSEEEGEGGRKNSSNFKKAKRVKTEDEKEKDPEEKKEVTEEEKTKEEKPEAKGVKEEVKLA

SMILES | fluorometric HDAC activity assay, 5 uM [1] | fluorometric HDAC activity assay, 5 uM [2] | fluorometric HDAC activity assay, 0.5 or 5 uM [3] | Kd [4] | fluorometric HDAC activity assay, 0.5 or 5 uM [5] | fluorometric HDAC activity assay, 0.5 or 5 uM [6]
CCCCCCCCCCCCC/C=C/[C@@H](O)[C@@H](N)COP(=O)(O)O [S1P] | Even though S1P inhibited HDAC1–HDAC3, it did not inhibit HDAC8 activity | Even though S1P inhibited HDAC1–HDAC3, it did not inhibit HDAC8 activity |  |  |  | 
CCCCCCCCc1ccc(CC[C@](N)(CO)COP(=O)(O)O)cc1 [FTY720-P] |  |  | FTY720-P inhibited the activities of highly purified recombinant class I HDACs (HDAC1, HDAC2, HDAC3 and HDAC8) | 6.2 nM | FTY720-P inhibited the activities of highly purified recombinant class I HDACs (HDAC1, HDAC2, HDAC3 and HDAC8) | FTY720-P inhibited the activities of highly purified recombinant class I HDACs (HDAC1, HDAC2, HDAC3 and HDAC8)
